# Source: PMC9942557, “Bolaamphiphile Analogues of 12-bis-THA Cl2 Are Potent Antimicrobial Therapeutics with Distinct Mechanisms of Action against Bacterial, Mycobacterial, and Fungal Pathogens” (mSphere, 2022)
# Read-outs that look alike come from different tables or passages of the source.
# Assays:
# [1] = tested on: VR Enterococcus faecalis NCTC 12201; test: Broth microdilution MIC; format: cell-based; conditions: VR Enterococcus faecalis NCTC 12201
# [2] = tested on: EMR Staphylococcus aureus 16 NCTC 13277; test: Broth microdilution MIC; format: cell-based; conditions: EMR Staphylococcus aureus 16 NCTC 13277
# M. smegmatis mc^2 155 = test: Broth microdilution MIC (Middlebrook 7H9); format: cell-based, Mycobacterium smegmatis
# [3] = tested on: Pseudomonas aeruginosa NCTC 13437; test: Broth microdilution MIC; format: cell-based
# [4] = tested on: VR Enterococcus faecium NCTC 12204; test: Broth microdilution MIC; format: cell-based; conditions: VR Enterococcus faecium NCTC 12204
# [5] = tested on: Klebsiella pneumoniae NCTC 13368; test: Broth microdilution MIC; format: cell-based
# C. parapsilosis = test: Broth microdilution MIC; format: cell-based
# M. tuberculosis Bleupan = test: microbe, parasite or virus in culture; format: cell-based, Mycobacterium tuberculosis
# [6] = tested on: Acinetobacter baumannii ATCC 17978; test: Broth microdilution MIC; format: cell-based
# C. albicans 3281 = test: Broth microdilution MIC; format: cell-based, Candida albicans
# [7] = tested on: Escherichia coli NCTC 12923; test: Broth microdilution MIC; format: cell-based
# C. tropicalis 8760 = test: Broth microdilution MIC; format: cell-based
# C. glabrata 8018 = test: Broth microdilution MIC; format: cell-based
# [8] = tested on: VS Enterococcus faecalis NCTC 775; test: Broth microdilution MIC; format: cell-based
# C. krusei 3876 = test: Broth microdilution MIC; format: cell-based
# HEK293 = test: In vitro toxicity for cell line; format: cell-based, human; conditions: HEK293; average ± standard error from 3 independent repeats
# Excerpt: (§1) TABLE 2 Toxicity of bolaamphiphiles for two cell lines^a | column: Toxicity (EC50 [μg/ml]) of: / 12-bis-THA Cl2; Toxicity (EC50 [μg/ml]) of: / Dequalinium; Toxicity (EC50 [μg/ml]) of: / Quino-bola; Toxicity (EC50 [μg/ml]) of: / Penta-bola; Toxicity (EC50 [μg/ml]) of: / Hepta-bola; Toxicity (EC50 [μg/ml]) of: / Octa-bola; Toxicity (EC50 [μg/ml]) of: / Octa-C10; Toxicity (EC50 [μg/ml]) of: / Octa-C8; Toxicity (EC50 [μg/ml]) of: / Octa-C6
# HeLa = test: In vitro toxicity for cell line; format: cell-based, human; conditions: average ± standard error from 3 independent repeats
# Excerpt: as §1
# C. albicans 3179 = test: Broth microdilution MIC; format: cell-based, Candida albicans
# Klebsiella pneumoniae M6 = test: Broth microdilution MIC; format: cell-based
# C. parapsilosis 3209 = test: Broth microdilution MIC; format: cell-based
# [9] = tested on: Acinetobacter baumannii AYE; test: Broth microdilution MIC; format: cell-based; conditions: Acinetobacter baumannii AYE
# [10] = tested on: Pseudomonas aeruginosa PAO1; test: Broth microdilution MIC; format: cell-based
# C. auris temp probe = test: Broth microdilution MIC; format: cell-based, Candida auris
# [11] = tested on: EMR Staphylococcus aureus 15 NCTC 13616; test: Broth microdilution MIC; format: cell-based; conditions: EMR Staphylococcus aureus 15 NCTC 13616
# P. aeruginosa NCTC 13437 = test: Fixed-concentration (0.25× MIC bolalipid) synergy broth microdilution; format: cell-based, Pseudomonas aeruginosa; conditions: P. aeruginosa NCTC 13437
# P. aeruginosa PAO1 = test: as above; format: cell-based, Pseudomonas aeruginosa; conditions: P. aeruginosa PAO1
# [12] = in the presence of 0.25× MIC Octa-C10 (Table S1)
# [13] = in the presence of 0.25× MIC Octa-bola (Table S1)
# [14] = Lodderomyces parapsilosis, read-out: MIC
compound,measurement,setting,value
Nc1c2c([n+](CCCCCCCC[n+]3c4c(c(N)c5ccccc53)CCCCCC4)c3ccccc13)CCCCCC2 [Octa-C8],MIC,[1],4 µg/mL
same,MIC,[2],1 µg/mL
same,MIC,M. smegmatis mc^2 155,0.19 µg/mL
same,MIC,[3],32 µg/mL
same,MIC,[4],0.5 µg/mL
same,MIC,[5],32 µg/mL
same,MIC,C. parapsilosis,8 µg/mL
same,MIC,M. tuberculosis Bleupan,0.49 µg/mL
same,MIC,[6],32 µg/mL
same,MIC,C. albicans 3281; C. albicans 3281,2 µg/mL
same,MIC,[7],8 µg/mL
same,MIC,C. tropicalis 8760; C. tropicalis 8760,1 µg/mL
same,MIC,C. glabrata 8018; C. glabrata 8018,2 µg/mL
same,MIC,[8],4 µg/mL
same,MIC,C. krusei 3876,4 µg/mL
same,Toxicity (EC50),HEK293,12.9 ± 4.3 µg/mL
same,Toxicity (EC50),HeLa,27.3 ± 1.3 µg/mL
same,MIC,C. albicans 3179; C. albicans 3179,2 µg/mL
same,MIC,Klebsiella pneumoniae M6,32 µg/mL
same,MIC,C. parapsilosis 3209,4 µg/mL
same,MIC,[9],32 µg/mL
same,MIC,[10],32 µg/mL
same,MIC,C. auris temp probe; C. auris temp probe,4 µg/mL
same,MIC,[11],1 µg/mL
O=C(O)c1cn(C2CC2)c2cc(N3CCNCC3)c(F)cc2c1=O [Ciprofloxacin],MIC of antibiotic,P. aeruginosa NCTC 13437; No bola (Table S1),32 µg/mL
same,MIC of antibiotic,P. aeruginosa NCTC 13437; [12],> 64 µg/mL
same,MIC of antibiotic,P. aeruginosa NCTC 13437; [13],> 64 µg/mL
same,MIC of antibiotic,P. aeruginosa PAO1; No bola (Table S1),0.125 µg/mL
same,MIC of antibiotic,P. aeruginosa PAO1; [12],1 µg/mL
same,MIC of antibiotic,P. aeruginosa PAO1; [13],1 µg/mL
C[C@@H](O)[C@H]1C(=O)N2C(C(=O)O)=C(S[C@@H]3CN[C@H](C(=O)N(C)C)C3)[C@H](C)[C@H]12 [Meropenem],MIC of antibiotic,P. aeruginosa NCTC 13437; No bola (Table S1),> 32 µg/mL
same,MIC of antibiotic,P. aeruginosa NCTC 13437; [12],> 32 µg/mL
same,MIC of antibiotic,P. aeruginosa NCTC 13437; [13],> 32 µg/mL
same,MIC of antibiotic,P. aeruginosa PAO1; No bola (Table S1),> 2 µg/mL
same,MIC of antibiotic,P. aeruginosa PAO1; [13],> 2 µg/mL
"OC(Cn1cncn1)(Cn1cncn1)c1ccc(F)cc1F [Fluconazole, reference compound]",MIC,C. parapsilosis; [14],0.5 µg/mL
same,MIC,"C. albicans 3281; Candida albicans, 3281",> 128 µg/mL
same,MIC,"C. tropicalis 8760; Candida tropicalis, 8760",> 128 µg/mL
same,MIC,"C. glabrata 8018; Nakaseomyces glabratus, 8018",> 128 µg/mL
same,MIC,"C. krusei 3876; Pichia kudriavzevii, read-out: MIC",32 µg/mL
same,MIC,"C. albicans 3179; Candida albicans, 3179",> 128 µg/mL
same,MIC,C. parapsilosis 3209; [14],0.25 µg/mL
same,MIC,C. auris temp probe; Candidozyma auris,> 128 µg/mL
